Laboratory results: patent US6130229A, “Tricyclic compounds having activity as RAS-FPT inhibitors” (Schering Corporation, priority 1997, dated 2000)
pIC50: −log10 of the molar value.

Biological target: farnesyl protein transferase
Assay: Inhibition of farnesyl protein transferase (test of WO 95/10514)
Assay type: biochemical
Conditions: percent inhibition relative to DMSO vehicle control, IC50 estimated
Text: The compounds of the invention can be tested by standard methods, for example by those published in published PCT application WO 95/10514 published Apr. 20, 1995 (starting at page 61), the disclosure of which is hereby incorporated herein by reference. Particularly relevant assays and studies include In vitro enzyme assays, Cell-Based Assays, Cell Mat Assays, and In Vivo Anti-Tumor Studies.
Such Assays and Studies indicate that compounds of the Formula I above are selective inhibitors of Ras-FPT and can be used as anti-tumor agents. The following Table presents IC50 values obtained in the test for Inhibition of farnesyl protein transferase, reported in published PCT application WO 95/10514. Percent inhibition was calculated relative to the DMSO vehicle control, and an IC50 value was estimated.

Molecule | pIC50
4-(8-Chloro-5,11-dihydro-[1]benzothiepinof4,3-b]pyridin-11-yl)-1-(4-pyridine-acetyl)piperazine N1,6,6-trioxide [Example 17B] | < 5.92
O=C(Cc1cc[n+]([O-])cc1)N1CCN(C2c3ccc(Cl)cc3OCc3cccnc32)CC1 (centres unmarked) [Example 1, 4-(8-Chloro-5,11-dihydro[1]benzoxepino[4.3-b]pyridin-11-yl)-1-(4-pyridine-acetyl)-piperazine N1-oxide] | 5.89
CSC(=NC#N)N1CCC(=C2c3ccc(Cl)cc3OCc3cccnc32)CC1 [Example 2] | < 6.85
N#CNC(=NCc1ccncc1)N1CCC(=C2c3ccc(Cl)cc3OCc3cccnc32)CC1 [Example 3, 4-(8-Chloro-5,11-dihydro[1]benzoxepino[4,3-b]pyridin-11-ylidene)-N-cyano-N'-(4-pyridinylmethyl)-1-piperidine-carboximidamide] | < 7.38
O=C(Cc1cc[n+]([O-])cc1)N1CCC(=C2c3ccc(Cl)cc3OCc3cc(Br)cnc32)CC1 [Example 4, 4-(3-Bromo-8-chloro-5,11-dihydro[1]benzoxepino[4,3-b]pyridin-11-ylidene)-1-(4-pyridine-acetyl)piperidine N1-oxide] | 6.96
O=C(Cc1ccncc1)N1CCC(=C2c3ccc(Cl)cc3OCc3cccnc32)CC1 [Example 5, 4-(8-Chloro-5,11-dihydro[1]benz-oxepino[4,3-b]pyridin-11-ylidene)-1-(4-pyridine-acetyl)piperidine] | 6.12
O=C(Cc1cccnc1)N1CCC(=C2c3ccc(Cl)cc3OCc3cccnc32)CC1 [Example 6, 4-(8-Chloro-5,11-dihydro[1]benz-oxepino[4,3-b]pyridin-11-ylidene)-1-(3-pyridine-acetyl)piperidine] | 5.64
O=C(Cc1ccncc1)N1CCN(C2c3ccc(Cl)cc3SCc3cccnc32)CC1 (centres unmarked) [Example 8, 4-(8-Chloro-5,11-dihydro-[1]benzothiepino[4,3-b]pyridin-11-yl)-1-(4-pyridinyl-acetyl)piperazine] | 6.49
O=C(Cc1cc[n+]([O-])cc1)N1CCN(C2c3ccc(Cl)cc3SCc3cccnc32)CC1 (centres unmarked) [Example 9A, 4-(8-Chloro-5,11-dihydro-[1]benzothiepino[4,3-b]pyridin-11-yl)-1-(4-pyridine-acetyl)piperazine N1-oxide] | 6.10
CN1CCC(CC(=O)N2CCN(C3c4ccc(Cl)cc4SCc4cccnc43)CC2)CC1 (centres unmarked) [Example 10, 4-(8-Chloro-5,11-dihydro-[1]benzothiepino[4,3-b]pyridin-11-yl)-1-(1-methyl-4-piperidine-acetyl)piperazine] | 5.68

Results, then the molecule that gave them:

pIC50 | Molecule
< 6.40 | O=C(Cc1cc[n+]([O-])cc1)N1CCC(=C2c3cc(Br)c(Cl)cc3OCc3cccnc32)CC1 [Example 7A, 4-(9-Bromo-8-chloro-5,11-dihydro[1]benzoxepino[4,3-b]pyridin-11-ylidene)-1-(4-pyridine-acetyl)piperidine N1-oxide]
5.82 | O=C(Cc1cc[n+]([O-])cc1)N1CCC(=C2c3ccc(Cl)cc3OCc3cccnc32)CC1 [Example 7B, 4-(8-Chloro-5,11-dihydro[1]benzoxepino[4,3-b]pyridin-11-ylidene)-1-(4-pyridine-acetyl)piperidine N1-oxide]
6.28 | O=C(Cc1cc[n+]([O-])cc1)N1CCC(=C2c3ccc(Cl)cc3SCc3cccnc32)CC1 [Example 9B, 4-(8-Chloro-5,11-dihydro-[1]benzothiepino[4,3-b]pyridin-11-ylidene)-1-(4-pyridine-acetyl)piperidine N1-oxide]
< 5.96 | CC(C)(C)OC(=O)N1CCC(CC(=O)N2CCN(C3c4ccc(Cl)cc4SCc4cccnc43)CC2)CC1 (centres unmarked) [Example 11A, 1,1-Dimethylethyl 4-[2-[4-(8-chloro-5,11-dihydro-[1]benzothiepino[4,3-b]pyridin-11-yl)-1-piperazinyl]2-oxoethyl]-1-piperidinecarboxylate]
